Measured values from patent publication US8980848B2, “Flavonoid dimers and their use” (The Hong Kong Polytechnic University, priority 2010, dated 2015).

Key:
[1] = Tumor cell line cytotoxicity of flavonoid dimers, LCC6MDR; format: cell-based, human; conditions: human, LCC6MDR cells, IC50 of compound alone
Experimental: (§1) (b) Tumor Cell Line Cytotoxicity. The tumor cytotoxicity assays of flavonoid dimers were performed against LCC6, LCC6MDR and L929 cell lines. […] In brief, LCC6, LCC6MDR and L929 cells were seeded into 96-well flat bottom microtiter plate at 1×10^4 cells per well in a final volume of 100 μL media, respectively. A graded dose of flavonoid dimers was added into wells. The plate was incubated at 37° C. for 72 hrs at the atmosphere 5% CO2 in the air. The % of survivors was determined.

[2] = molecular target: Pgp (LCC6MDR cells) (Homo sapiens, UniProt P08183); test: Cell proliferation assay: Pgp-modulating activity, reversal of anticancer drug resistance in LCC6MDR cells; conditions: paclitaxel, LCC6MDR; for RF (Relative Fold), cpd at 0.5 μM: RF = (IC50 without modulator)/(IC50 with 0.5 μM modulator); for RF (Relative Fold), cpd at 1 μM: RF = (IC50 without modulator)/(IC50 with 1.0 μM modulator)
Experimental: Cell Proliferation Assay. 6,000 cells of LCC6 or LCC6MDR and anticancer drugs (paclitaxel, vinblastine, vincristine, doxorubicin and mitoxantrone) were mixed with or without modulators to a final volume of 200 μL in each well of 96-well plates. […] The plates were then incubated for 5 days at 37° C. […] IC50 values were calculated from the dose-response curves of MTS assays (Prism 4.0).

[3] = Cytotoxicity of flavonoid dimers, L929 mouse fibroblast; format: cell-based; conditions: mouse, L929 fibroblast cells, IC50 of compound alone, 72 hrs, mouse fibroblast
Experimental: as §1

[4] = Tumor cell line cytotoxicity of flavonoid dimers, LCC6; format: cell-based, human; conditions: human, LCC6 cells, IC50 of compound alone
Experimental: as §1

Sequence of Pgp (LCC6MDR cells) (P08183 whole entry): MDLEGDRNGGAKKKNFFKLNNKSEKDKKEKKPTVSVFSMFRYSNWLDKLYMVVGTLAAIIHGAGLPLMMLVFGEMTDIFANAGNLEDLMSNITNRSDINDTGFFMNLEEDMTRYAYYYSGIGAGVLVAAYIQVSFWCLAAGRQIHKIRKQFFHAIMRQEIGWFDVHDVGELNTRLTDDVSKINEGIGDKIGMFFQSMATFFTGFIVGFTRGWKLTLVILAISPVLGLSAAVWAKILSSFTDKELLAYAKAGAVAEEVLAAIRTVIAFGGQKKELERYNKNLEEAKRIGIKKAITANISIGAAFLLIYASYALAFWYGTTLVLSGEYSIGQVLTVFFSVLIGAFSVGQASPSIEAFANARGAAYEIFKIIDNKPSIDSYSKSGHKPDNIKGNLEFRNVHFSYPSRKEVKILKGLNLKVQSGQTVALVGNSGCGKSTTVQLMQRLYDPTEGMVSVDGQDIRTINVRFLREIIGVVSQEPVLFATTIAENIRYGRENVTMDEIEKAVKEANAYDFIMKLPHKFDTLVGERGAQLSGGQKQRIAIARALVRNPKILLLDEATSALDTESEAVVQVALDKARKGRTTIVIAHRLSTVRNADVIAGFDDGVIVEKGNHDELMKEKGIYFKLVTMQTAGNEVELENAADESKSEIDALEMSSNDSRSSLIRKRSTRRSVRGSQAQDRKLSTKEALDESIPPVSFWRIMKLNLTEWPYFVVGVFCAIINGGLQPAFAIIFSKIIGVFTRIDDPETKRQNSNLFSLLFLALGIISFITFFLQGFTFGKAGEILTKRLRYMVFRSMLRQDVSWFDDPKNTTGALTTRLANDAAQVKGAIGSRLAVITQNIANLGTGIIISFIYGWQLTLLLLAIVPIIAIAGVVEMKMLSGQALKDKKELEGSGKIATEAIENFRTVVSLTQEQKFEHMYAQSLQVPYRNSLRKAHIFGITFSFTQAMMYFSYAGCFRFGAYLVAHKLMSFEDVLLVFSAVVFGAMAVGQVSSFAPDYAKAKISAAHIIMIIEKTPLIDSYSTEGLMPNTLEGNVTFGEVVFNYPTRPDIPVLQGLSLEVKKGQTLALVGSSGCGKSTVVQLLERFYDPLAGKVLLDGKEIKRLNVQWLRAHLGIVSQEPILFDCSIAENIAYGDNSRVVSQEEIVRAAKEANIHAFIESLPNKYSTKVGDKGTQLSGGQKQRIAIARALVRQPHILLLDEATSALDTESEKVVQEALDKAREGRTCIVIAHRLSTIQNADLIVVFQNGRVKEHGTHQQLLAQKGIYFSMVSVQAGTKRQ

In the case of `O=c1cc(-c2ccc(OCCOCCN(CCOCCOc3ccc(-c4cc(=O)c5ccccc5o4)cc3)Cc3ccncn3)cc2)oc2ccccc12` [Compound 64e, 1,13-Bis[4′-(4H-chromen-4-on-2-yl)phenyl]-7-(4-pyrimidinylmethyl)-1,4,10,13-tetraoxa-7-azamidecane], the IC50 at 72 h [1] is reported as > 50 µM, the “RF (Relative Fold), cpd at 0.5 μM” value [2] is reported as “(8.3)” and the “RF (Relative Fold), cpd at 1 μM” value [2] is reported as “(61.2)”. For the same molecule, the IC50 at 72 h [3] was > 50 µM and the IC50 at 72 h [4] was > 50 µM.
In the case of `O=c1cc(-c2ccc(OCCOCCN(CCOCCOc3ccc(-c4cc(=O)c5ccccc5o4)cc3)Cc3ccnc4ccccc34)cc2)oc2ccccc12` [Compound 64f, 1,13-Bis[4′-(4H-chromen-4-on-2-yl)phenyl]-7-(4-quinolinylmethyl)-1,4,10,13-tetraoxa-7-azamidecane], the IC50 at 72 h [1] is reported as > 100 µM, the “RF (Relative Fold), cpd at 0.5 μM” value [2] is reported as “(15.9)” and the “RF (Relative Fold), cpd at 1 μM” value [2] is reported as “(69.6)”. For the same molecule, the IC50 at 72 h [3] was > 100 µM and the IC50 at 72 h [4] was > 100 µM.
With `O=c1cc(-c2ccc(OCCOCCN(CCOCCOc3ccc(-c4cc(=O)c5ccccc5o4)cc3)Cc3ccc4ccccc4n3)cc2)oc2ccccc12` [Compound 64g, 1,13-Bis[4′-(4H-chromen-4-on-2-yl)phenyl]-7-(2-quinolinylmethyl)-1,4,10,13-tetraoxa-7-azamidecane] the IC50 at 72 h [1] was > 100 µM, the “RF (Relative Fold), cpd at 0.5 μM” value [2] was “(66.6)” and the “RF (Relative Fold), cpd at 1 μM” value [2] was “(102.1)”. The IC50 at 72 h [3] was 8.5 ± 2.3 µM and the IC50 at 72 h [4] was > 100 µM.
With `O=c1cc(-c2ccc(OCCOCCN(CCOCCOc3ccc(-c4cc(=O)c5ccccc5o4)cc3)c3ccccc3)cc2)oc2ccccc12` [Compound 64h, 1,13-Bis[4′-(4H-chromen-4-on-2-yl)phenyl]-7-(phenyl)-1,4,10,13-tetraoxa-7-azamidecane] the IC50 at 72 h [1] was > 100 µM, the “RF (Relative Fold), cpd at 0.5 μM” value [2] was “(11.6)” and the “RF (Relative Fold), cpd at 1 μM” value [2] was “(72.9)”. The IC50 at 72 h [3] was > 100 µM and the IC50 at 72 h [4] was > 100 µM.
